Reference: patent publication US20220370429A1, “AROMATIC HETEROCYCLIC COMPOUND HAVING TRICYCLIC STRUCTURE, AND PREPARATION METHOD THEREFOR AND APPLICATION THEREOF” (SHANGHAI LONGWOOD BIOPHARMACEUTICALS CO., LTD., priority 2019, published 2022)
pIC50: −log10 of the molar value.

Molecular target: T1, PD-1/PD-L1 (Homo sapiens, UniProt Q9NZQ7)
T1 construct: Recombinant human PD-L1 protein (19-238) with a His-tagged at the C-terminus; purchased AcroBiosystems PD1-H5229 (PD-L1); PD1-H5257 (PD-1)
Test: PD-1/PD-L1 Homogeneous Time-Resolved Fluorescence (HTRF) Binding Assay
Conditions: 25° C., PBS pH 7.4, ~3 nM PD1, 10 nM PD-L1
Protocol: Example A: PD-1/PD-L1 Homogeneous Time-Resolved Fluorescence (HTRF) Binding Assay
Assays were performed in standard black 384-well polystyrene plates and a final volume was 20 μL. The inhibitor was first serially diluted with DMSO and added to the wells of the plate, followed by the addition of other reaction components. The final concentration of DMSO in the assay was 1%. Assays were performed at 25° C. in PBS buffer (pH 7.4) containing 0.05% Tween-20 and 0.1% BSA. Recombinant human PD-L1 protein (19-238) with a His-tagged at the C-terminus was purchased from AcroBiosystems (PD1-H5229). Recombinant human PD-1 protein (25-167) with an Fc tag at the C-terminus was also purchased from AcroBiosystems (PD1-H5257). The PD-L1 and PD-1 proteins were diluted in assay buffer and then […] of the solution was extracted and added to the wells of the plate. Plates were centrifuged and proteins and inhibitors were preincubated for 40 minutes. After incubation, 0.1 μl of HTRF detection buffer containing europium […] labeled anti-human IgG (PerkinElmer-AD0212), Fc-specific and anti-His SureLight®-Allophycocyanin (APC, PerkinElmer-AD0059H) conjugated antibodies was added. After centrifugation, the plates were incubated at 25° C. for 60 minutes. Data was read in a PHERAstar FS plate reader (665 nm/620 nm ratio). Final concentrations in the assay were ˜3 nM PD1, 10 nM PD-L1, 1 nM europium anti-human IgG, and 20 nM anti-His-allophycocyanin. Activity data were fitted using GraphPad Prism 5_0 software to derive IC50 values for inhibitors.

T1 sequence (Q9NZQ7 19-238): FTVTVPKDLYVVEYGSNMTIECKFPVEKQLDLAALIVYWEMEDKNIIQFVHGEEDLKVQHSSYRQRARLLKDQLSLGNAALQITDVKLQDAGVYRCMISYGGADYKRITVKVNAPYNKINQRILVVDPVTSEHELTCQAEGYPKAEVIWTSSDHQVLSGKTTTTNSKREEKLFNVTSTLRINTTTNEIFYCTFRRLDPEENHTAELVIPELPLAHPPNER

COc1nc(O[C@H]2CCc3c(-c4cccc(-c5cc6cc7c(c(C#N)c6o5)CCC7N5CC[C@@H](C(=O)O)C5)c4C)cccc32)ccc1CN1CC[C@@H](O)C1 (stereo partly drawn) [Compound 001]
pIC50: ≥ 8.00

COc1nc(O[C@H]2CCc3c(-c4cccc(-c5nc6cc7c(c(C#N)c6o5)CCC7N5CC[C@@H](C(=O)O)C5)c4C)cccc32)ccc1CN1CC[C@@H](O)C1 (stereo partly drawn) [Compound 003]
pIC50: ≥ 8.00

COc1nc(O[C@H]2CCc3c(-c4cccc(-c5nc6cc7c(c(C#N)c6o5)CCC7N5CC[C@@H](C(=O)O)C5)c4Cl)cccc32)ccc1CN1CC[C@@H](O)C1 (stereo partly drawn) [Compound 004]
pIC50: ≥ 8.00

COc1nc(O[C@H]2CCc3c(-c4cccc(-c5nc6cc7c(c(C#N)c6o5)CCC7N5CC[C@@H](C(=O)O)C5)c4Cl)cccc32)c(Cl)cc1CN1CC[C@@H](O)C1 (stereo partly drawn) [Compound 005]
pIC50: ≥ 8.00

COc1nc(O[C@H]2CCc3c(-c4cccc(-c5nc6cc7c(c(C#N)c6o5)CC[C@H]7N5CC[C@@H](C(=O)O)C5)c4Cl)cccc32)c(Cl)cc1CN1CC[C@@H](O)C1 [Compound 006]
pIC50: ≥ 8.00

COc1nc(O[C@H]2CCc3c(-c4cccc(-c5nc6cc7c(c(C#N)c6o5)CC[C@H]7N5CC[C@@H](C(=O)NS(=O)(=O)C6CC6)C5)c4C)cccc32)c(Cl)cc1CN1CC[C@@H](O)C1 [Compound 079]
pIC50: ≥ 8.00

COc1nc(O[C@H]2CCc3c(-c4cccc(-c5cc6cc7c(c(C#N)c6o5)CC[C@H]7N5CC[C@@H](C(=O)NS(=O)(=O)C6CC6)C5)c4C)cccc32)c(Cl)cc1CN1CC[C@@H](O)C1 [Compound 080]
pIC50: ≥ 8.00

COc1nc(O[C@H]2CCc3c(-c4cccc(-c5nc6cc7c(c(C#N)c6o5)CC[C@H]7N5CC[C@@H](C(=O)NS(=O)(=O)C6CC6)C5)c4Cl)cccc32)c(Cl)cc1CNC[C@H]1CCC(=O)N1 [Compound 081]
pIC50: ≥ 8.00

COc1nc(O[C@H]2CCc3c(-c4cccc(-c5nc6cc7c(c(C#N)c6o5)CC[C@H]7N5CC[C@@H](C(=O)NS(=O)(=O)C6CC6)C5)c4Cl)cccc32)c(Cl)cc1CN1CC2(CCC(=O)N2)C1 [Compound 083]
pIC50: ≥ 8.00

COc1nc(O[C@H]2CCc3c(-c4cccc(-c5nc6cc7c(c(C#N)c6o5)CC[C@H]7N5CC[C@@H](C(=O)O)C5)c4Cl)cccc32)c(C(F)F)cc1CN1CC[C@@H](O)C1 [Compound 086]
pIC50: ≥ 8.00

COc1nc(O[C@H]2CCc3c(-c4cccc(-c5nc6cc7c(c(C#N)c6o5)CC[C@H]7N5CC[C@@H](C(=O)NS(=O)(=O)C6CC6)C5)c4C)cccc32)c(C(F)F)cc1CN1CC[C@@H](O)C1 [Compound 087]
pIC50: ≥ 8.00

COc1nc(O[C@H]2CCc3c(-c4cccc(-c5nc6cc7c(c(C#N)c6o5)CC[C@H]7N5CC[C@@H](C(=O)NS(=O)(=O)C6CC6)C5)c4Cl)cccc32)c(C(F)F)cc1CN1CC[C@@H](O)C1 [Compound 088]
pIC50: ≥ 8.00

COc1nc(O[C@H]2CCc3c(-c4cccc(-c5nc6cc7c(c(C#N)c6o5)CC[C@H]7N5CC[C@@H](C(=O)NS(=O)(=O)C6(C)CC6)C5)c4C)cccc32)c(Cl)cc1CN1CC2(CCC(=O)N2)C1 [Compound 090]
pIC50: ≥ 8.00

COc1nc(O[C@H]2CCc3c(-c4cccc(-c5nc6cc7c(c(C#N)c6o5)CC[C@H]7N5CC[C@@H](C(=O)O)C5)c4C)cccc32)ccc1CN1CC[C@@H](O)C1 [Compound 091]
pIC50: ≥ 8.00

COc1nc(O[C@H]2CCc3c(-c4cccc(-c5nc6cc7c(c(C#N)c6o5)CC[C@H]7N5CC[C@@H](C(=O)O)C5)c4Cl)cccc32)ccc1CN1CC[C@@H](O)C1 [Compound 092]
pIC50: ≥ 8.00

COc1nc(O[C@H]2CCc3c(-c4cccc(-c5nc6cc7c(c(C#N)c6o5)CC[C@H]7N5CC[C@@H](C(=O)NS(=O)(=O)C6CC6)C5)c4Cl)cccc32)ccc1CN1CC[C@@H](O)C1 [Compound 093]
pIC50: ≥ 8.00

COc1nc(O[C@H]2CCc3c(-c4cccc(-c5nc6cc7c(c(C#N)c6o5)CC[C@H]7N5CC[C@@H](C(=O)NS(=O)(=O)C6CC6)C5)c4C)cccc32)ccc1CN1CC[C@@H](O)C1 [Compound 094]
pIC50: ≥ 8.00

COc1nc(O[C@H]2CCc3c(-c4cccc(-c5nc6cc7c(c(C#N)c6o5)CC[C@H]7N5CC[C@@H](C(=O)NS(=O)(=O)C6(C)CC6)C5)c4C)cccc32)ccc1CN1CC[C@@H](O)C1 [Compound 095]
pIC50: ≥ 8.00

COc1nc(O[C@H]2CCc3c(-c4cccc(-c5nc6cc7c(c(C#N)c6o5)CC[C@H]7N5CC[C@@H](C(=O)NS(=O)(=O)C6(C)CC6)C5)c4Cl)cccc32)c(Cl)cc1CN1CC[C@@H](O)C1 [Compound 096]
pIC50: ≥ 8.00

COc1nc(O[C@H]2CCc3c(-c4cccc(-c5nc6cc7c(c(C#N)c6o5)CC[C@H]7N5CC[C@@H](C(=O)NS(=O)(=O)C6(C)CC6)C5)c4Cl)cccc32)ccc1CN1CC[C@@H](O)C1 [Compound 097]
pIC50: ≥ 8.00

COc1nc(O[C@H]2CCc3c(-c4cccc(-c5nc6cc7c(c(C#N)c6o5)CC[C@H]7N5CC[C@@H](C(=O)NS(=O)(=O)C6(C)CC6)C5)c4C)cccc32)c(Cl)cc1CN1CC[C@@H](O)C1 [Compound 098]
pIC50: ≥ 8.00
